According to patent US20220030867A1 (priority 2018, published 2022):

How the values were obtained:
[1] = system: Botryotinia fuckeliana (Botrytis cinerea); assay: Botryotinia fuckeliana (Botrytis cinerea) / liquid culture (gray mould); type: cell-based; conditions: growth inhibition photometrically 3-4 days after application, vs untreated control
Experimental: Botryotinia fuckeliana (Botrytis cinerea)/Liquid Culture (Gray Mould)
(§1) Conidia of the fungus from cryogenic storage are directly mixed into nutrient broth (Vogels broth). After placing a (DMSO) solution of test compound into a microtiter plate (96-well format), the nutrient broth containing the fungal spores is added. The test plates are incubated at 24° C. and the inhibition of growth is determined photometrically 3-4 days after application.

[2] = system: Glomerella lagenarium (Colletotrichum lagenarium); assay: Glomerella lagenarium (Colletotrichum lagenarium) / liquid culture (anthracnose); type: cell-based; conditions: Colletotrichum orbiculare, growth inhibition photometrically 3-4 days after application, vs untreated control
Experimental: as §1, with “(PDB potato dextrose” for “(Vogels”, “measured” for “determined”

[3] = system: Monographella nivalis (Microdochium nivale); assay: Monographella nivalis (Microdochium nivale) / liquid culture (foot rot cereals); type: cell-based; conditions: growth inhibition photometrically 4-5 days after application, vs untreated control
Experimental: Monographella nivalis (Microdochium nivale)/Liquid Culture (Foot Rot Cereals)
as §1, with “(PDB potato dextrose” for “(Vogels”, “4-5” for “3-4”

[4] = system: Magnaporthe grisea (Pyricularia oryzae); assay: microbe, parasite or virus in culture; type: cell-based; conditions: read-out: control of Magnaporthe grisea
[5] = system: Mycosphaerella graminicola (Septoria tritici); assay: Mycosphaerella graminicola (Septoria tritici) / liquid culture (Septoria blotch); type: cell-based; conditions: Zymoseptoria tritici, growth inhibition photometrically 4-5 days after application, vs untreated control
Experimental: Mycosphaerella graminicola (Septoria tritici)/Liquid Culture (Septoria Blotch)
as §1, with “(PDB potato dextrose” for “(Vogels”, “4-5” for “3-4”

Fusarium culmorum [6] = assay: microbe, parasite or virus in culture; type: cell-based; conditions: read-out: control of Fusarium culmorum
Fusarium culmorum [7] = assay: whole plant or invertebrate; type: in vivo, Fusarium culmorum on wheat spikelets cv. Monsun; conditions: in Triticum aestivum, read-out: control of Fusarium culmorum
[8] = system: Magnaporthe grisea (Pyricularia oryzae); assay: whole plant or invertebrate; type: in vivo, Magnaporthe grisea on rice leaf segments cv. Ballila; conditions: foliar, read-out: control of Magnaporthe grisea
Sclerotinia sclerotiorum = Sclerotinia sclerotiorum / liquid culture (cottony rot); type: cell-based; conditions: growth inhibition photometrically 3-4 days after application, vs untreated control
Experimental: Sclerotinia sclerotiorum/Liquid Culture (Cottony Rot)
as §1, with “Mycelia fragments of a newly grown liquid culture” for “Conidia”, “fungus” for “fungus from cryogenic storage”, “format)” for “format),”, “material” for “spores”

Row | Structure (SMILES) | inhibition of growth at 200 ppm [1] [%] | inhibition of growth at 200 ppm [2] [%] | inhibition of growth at 200 ppm [3] [%] | inhibition of growth at 200 ppm [4] [%] | inhibition of growth at 200 ppm [5] [%] | inhibition of growth at 200 ppm (Fusarium culmorum [6]) [%] | pest or weed control at 200 ppm (Fusarium culmorum [7]) [%] | pest or weed control at 200 ppm [8] [%] | inhibition of growth at 20 ppm (Sclerotinia sclerotiorum) [%] | melting point [°C]
1 | C=C(Cl)C[C@@H](Cc1ccccc1)C(=O)Nc1cnc2c(F)cccc2c1C [Compound F-27, (2R)-2-benzyl-4-chloro-N-(8-fluoro-4-methyl-3-quinolyl)pent-4-enamide] | ≥ 80 | ≥ 80 | ≥ 80 | ≥ 80 | ≥ 80 |  |  |  |  | 
2 | C=C(Cl)C[C@@H](Cc1ccccc1)C(=O)Nc1cc2cccc(F)c2nc1C [Compound F-25, (2R)-2-benzyl-4-chloro-N-(8-fluoro-2-methyl-3-quinolyl)pent-4-enamide] | ≥ 80 | ≥ 80 |  | ≥ 80 | ≥ 80 | ≥ 80 | ≥ 80 | ≥ 80 |  | 
3 | C=C(C)CC(Cc1ccccc1)C(=O)Nc1cnc2c(F)cccc2c1C (stereo not shown) [Compound E-93, 2-benzyl-N-(8-fluoro-4-methyl-3-quinolyl)-4-methyl-pent-4-enamide] |  |  |  | ≥ 80 | ≥ 80 |  |  | ≥ 80 | ≥ 80 | 116 to 118
4 | Cc1c(NC(=O)[C@@H](Cc2ccccc2)CC2(C)CC2)cnc2c(F)cccc12 [Compound F-40, (2R)-2-benzyl-N-(8-fluoro-4-methyl-3-quinolyl)-3-(1-methylcyclopropyl)propanamide] | ≥ 80 | ≥ 80 | ≥ 80 | ≥ 80 | ≥ 80 | ≥ 80 | ≥ 80 |  | ≥ 80 | 
